Data: PubChem BioAssay AID1259407 (Chemical Carcinogenesis Research Information System (CCRIS), 2018)
Entries after “also recorded” stand apart in the source; their conditions may differ. Activity calls are given as the source filed them. How the calls were made is not given here.

System: CCRIS mutagenicity, Ames/micronucleus/aberration tests
Assay: CCRIS mutagenicity studies
[1] = Test System: AMES SALMONELLA TYPHIMURIUM, Strain/Indicator: TA100, Metabolic Activation: NONE, Method: STANDARD PLATE
[2] = Test System: CHINESE HAMSTER V-79, Strain/Indicator: V-79/OUABAIN, Metabolic Activation: NONE

## C1CCC(C(CC2CCCCN2)C2CCCCC2)CC1 (stereo not given)
Test System: AMES SALMONELLA TYPHIMURIUM, Strain/Indicator: TA100(FR1), Metabolic Activation: NONE, Method: STANDARD PLATE
  mutagenic call: inactive; negative
Test System: AMES SALMONELLA TYPHIMURIUM, Strain/Indicator: TA100(FR1), Metabolic Activation: RAT, LIVER, S-9, PHENOBARBITAL AND 3-METHYLCHOLANTHRENE, Method: STANDARD PLATE
  mutagenic call: inactive; negative
[1]
  mutagenic call: inactive; negative
Test System: AMES SALMONELLA TYPHIMURIUM, Strain/Indicator: TA100, Metabolic Activation: RAT, LIVER, S-9, PHENOBARBITAL AND 3-METHYLCHOLANTHRENE, Method: STANDARD PLATE
  mutagenic call: inactive; negative
Test System: CHINESE HAMSTER V-79, Strain/Indicator: V-79/6-THIOGUANINE, Metabolic Activation: NONE
  mutagenic call: inactive; negative
Test System: CHINESE HAMSTER V-79, Strain/Indicator: V-79/6-THIOGUANINE, Metabolic Activation: RAT, LIVER, HEPATOCYTES
  mutagenic call: active; positive
[2]
  mutagenic call: inactive; negative
Test System: CHINESE HAMSTER V-79, Strain/Indicator: V-79/OUABAIN, Metabolic Activation: RAT, LIVER, HEPATOCYTES
  mutagenic call: inactive; negative

## COc1ccc(C(c2ccc(OC)cc2)C(Cl)(Cl)Cl)cc1
Test System: CHINESE HAMSTER OVARY, Strain/Indicator: CHO-K1-BH4 (HGPRT)/6-THIOGUANINE, Metabolic Activation: NONE, Method: SUSPENSION/PLATE
  mutagenic call: inactive; negative
Test System: CHINESE HAMSTER OVARY, Strain/Indicator: CHO-K1-BH4 (HGPRT)/6-THIOGUANINE, Metabolic Activation: S-9, Method: SUSPENSION/PLATE
  mutagenic call: inactive; negative
Test System: E. COLI, Strain/Indicator: WP2 UVRA, Metabolic Activation: HAMSTER, LIVER, S-9, AROCLOR 1254, Method: STANDARD PLATE
  mutagenic call: inactive; negative
Test System: E. COLI, Strain/Indicator: WP2 UVRA, Metabolic Activation: HAMSTER, LIVER, S-9, Method: STANDARD PLATE
  mutagenic call: inactive; negative
Test System: E. COLI, Strain/Indicator: WP2 UVRA, Metabolic Activation: MOUSE, LIVER, S-9, AROCLOR 1254, Method: STANDARD PLATE
  mutagenic call: inactive; negative
Test System: E. COLI, Strain/Indicator: WP2 UVRA, Metabolic Activation: MOUSE, LIVER, S-9, Method: STANDARD PLATE
  mutagenic call: inactive; negative
Test System: E. COLI, Strain/Indicator: WP2 UVRA, Metabolic Activation: NONE, Method: STANDARD PLATE
  mutagenic call: inactive; negative
Test System: E. COLI, Strain/Indicator: WP2 UVRA, Metabolic Activation: RAT, LIVER, S-9, AROCLOR 1254, Method: STANDARD PLATE
  mutagenic call: inactive; negative
Test System: E. COLI, Strain/Indicator: WP2 UVRA, Metabolic Activation: RAT, LIVER, S-9, Method: STANDARD PLATE
  mutagenic call: inactive; negative
Test System: MOUSE LYMPHOMA, Strain/Indicator: L5178Y (TK+/TK-), Metabolic Activation: NONE, Method: SUSPENSION/PLATE
  mutagenic call: inactive; negative
Test System: MOUSE LYMPHOMA, Strain/Indicator: L5178Y (TK+/TK-), Metabolic Activation: RAT, LIVER, S-9, AROCLOR 1254, Method: SUSPENSION/PLATE
  mutagenic call: active; positive
Test System: MOUSE LYMPHOMA, Strain/Indicator: L5178Y (TK+/TK-), Metabolic Activation: RAT, LIVER, S-9, Method: SUSPENSION/PLATE
  mutagenic call: active; positive
Test System: MOUSE LYMPHOMA, Strain/Indicator: L5178Y (TK+/TK-), Metabolic Activation: S-9, Method: SUSPENSION/PLATE
  mutagenic call: active; positive

## CCN(CO)N=O
[2]
  mutagenic call: active; positive

## CC(=O)O.CC(=O)O.O.O.[O]=[U]=[O]
Test System: Chinese hamster ovary, Strain/Indicator: AA8 (HPRT)/6-Thioguanine, Metabolic Activation: None, Method: Standard plate
  mutagenic call: inactive; negative
Test System: Chinese hamster ovary, Strain/Indicator: EM9 (HPRT)/6-Thioguanine, Metabolic Activation: None, Method: Standard plate
  mutagenic call: active; positive, em9 cho cells are xrcc1-deficient.

## C=C1[C@@H]2CC[C@H]3[C@]4(C)CCC[C@@](C)(C(=O)O)[C@H]4CC[C@]3(C2)[C@H]1O
Test System: AMES SALMONELLA TYPHIMURIUM, Strain/Indicator: TM677, Metabolic Activation: RAT, LIVER, S-9, AROCLOR 1254, Method: PREINCUBATION
  mutagenic call: inactive; negative

## COC1(O[C@H]2CC[C@H]3[C@@H]4CC[C@H]5C[C@@H]6S[C@@H]6C[C@]5(C)[C@H]4CC[C@]23C)CCCC1
Test System: AMES SALMONELLA TYPHIMURIUM, Strain/Indicator: TA98, Metabolic Activation: NONE, Method: STANDARD PLATE
  mutagenic call: inactive; negative
Test System: AMES SALMONELLA TYPHIMURIUM, Strain/Indicator: TA98, Metabolic Activation: S-9, Method: STANDARD PLATE
  mutagenic call: inactive; negative
[1]
  mutagenic call: inactive; negative
Test System: AMES SALMONELLA TYPHIMURIUM, Strain/Indicator: TA100, Metabolic Activation: S-9, Method: STANDARD PLATE
  mutagenic call: inactive; negative
Test System: AMES SALMONELLA TYPHIMURIUM, Strain/Indicator: TA1537, Metabolic Activation: S-9, Method: STANDARD PLATE
  mutagenic call: inactive; negative
Test System: E. COLI, Strain/Indicator: WP2 (HCR), Metabolic Activation: NONE, Method: STANDARD PLATE
  mutagenic call: inactive; negative
Test System: E. COLI, Strain/Indicator: WP2 (HCR), Metabolic Activation: S-9, Method: STANDARD PLATE
  mutagenic call: inactive; negative

## CC(C)(C)CC(C)(C)c1ccc(O)cc1
End Point: In vitro chromosomal aberrations, Test System: Chinese hamster lung (CHL/IU) cells, Metabolic Activation: None
  mutagenic call: inactive; negative. toxic at 0.04 mg/ml; also recorded: inactive; negative. toxic at 0.030 and 0.036 mg/ml
End Point: In vitro chromosomal aberrations, Test System: Chinese hamster lung (CHL/IU) cells, Metabolic Activation: Rat, Liver, S9, Phenobarbital and 5,6-benzoflavone
  mutagenic call: active; positive (structural changes and ploidy). toxic at 0.06 mg/ml.
Test System: AMES SALMONELLA TYPHIMURIUM, Strain/Indicator: TA98, Metabolic Activation: NONE, Method: PREINCUBATION
  mutagenic call: inactive; negative
Test System: AMES SALMONELLA TYPHIMURIUM, Strain/Indicator: TA98, Metabolic Activation: RAT LIVER S-9, PHENOBARBITAL AND BETA-NAPHTHOVLAVONE, Method: PREINCUBATION
  mutagenic call: inactive; negative
Test System: AMES SALMONELLA TYPHIMURIUM, Strain/Indicator: TA100, Metabolic Activation: NONE, Method: PREINCUBATION
  mutagenic call: inactive; negative
Test System: AMES SALMONELLA TYPHIMURIUM, Strain/Indicator: TA100, Metabolic Activation: RAT LIVER S-9, PHENOBARBITAL AND BETA-NAPHTHOFLAVONE, Method: PREINCUBATION
  mutagenic call: inactive; negative
Test System: AMES SALMONELLA TYPHIMURIUM, Strain/Indicator: TA102, Metabolic Activation: NONE, Method: PREINCUBATION
  mutagenic call: inactive; negative
Test System: AMES SALMONELLA TYPHIMURIUM, Strain/Indicator: TA102, Metabolic Activation: RAT LIVER S-9, PHENOBARBITAL AND BETA-NAPHTHOFLAVONE, Method: PREINCUBATION
  mutagenic call: inactive; negative
Test System: AMES SALMONELLA TYPHIMURIUM, Strain/Indicator: TA104, Metabolic Activation: NONE, Method: PREINCUBATION
  mutagenic call: inactive; negative
Test System: AMES SALMONELLA TYPHIMURIUM, Strain/Indicator: TA104, Metabolic Activation: RAT LIVER S-9, PHENOBARBITAL AND BETA-NAPHTHOFLAVONE, Method: PREINCUBATION
  mutagenic call: inactive; negative
Test System: AMES SALMONELLA TYPHIMURIUM, Strain/Indicator: TA1535, Metabolic Activation: NONE, Method: PREINCUBATION
  mutagenic call: inactive; negative
Test System: AMES SALMONELLA TYPHIMURIUM, Strain/Indicator: TA1535, Metabolic Activation: RAT LIVER S-9, PHENOBARBITAL AND BETA-NAPHTHOFLAVONE, Method: PREINCUBATION
  mutagenic call: inactive; negative
Test System: AMES SALMONELLA TYPHIMURIUM, Strain/Indicator: TA1537, Metabolic Activation: NONE, Method: PREINCUBATION
  mutagenic call: inactive; negative
Test System: AMES SALMONELLA TYPHIMURIUM, Strain/Indicator: TA1537, Metabolic Activation: RAT LIVER S-9, PHENOBARBITAL AND BETA-NAPHTHOFLAVONE, Method: PREINCUBATION
  mutagenic call: inactive; negative
Test System: E. COLI, Strain/Indicator: WP2UVRA/PKM101, Metabolic Activation: NONE, Method: PREINCUBATION
  mutagenic call: inactive; negative
Test System: E. COLI, Strain/Indicator: WP2UVRA/PKM101, Metabolic Activation: RAT LIVER S-9, PHENOBARBITAL AND BETA-NAPHTHOFLAVONE, Method: PREINCUBATION
  mutagenic call: inactive; negative
Test System: E. COLI, Strain/Indicator: WP2UVRA, Metabolic Activation: NONE, Method: PREINCUBATION
  mutagenic call: inactive; negative
Test System: E. COLI, Strain/Indicator: WP2UVRA, Metabolic Activation: RAT LIVER S-9, PHENOBARBITAL AND BETA-NAPHTHOFLAVONE, Method: PREINCUBATION
  mutagenic call: inactive; negative
